Molecules are shown by their SMILES. Where two headings read alike, the source gives them in different places.

Molecule `CCCC[C@@H]1NC(=O)OCCCCC=CCc2ccccc2O[C@@H]2C[C@@H](C(=O)OC)N(C2)C1=O` returned a ring closure, yield of all isomers (from C=CCCCCOC(=O)N[C@@H](CCCC)C(=O)N1C[C@H](Oc2ccccc2CC=C)C[C@H]1C(=O)OC, rcm bond, Zhan 1a catalyst, DCE, 4.9 mM, 83.0 °C, 2.0 h) of 100%. `C=C1CCCCCOC(=O)N[C@@H](C2CCCCC2)C(=O)N2C[C@@H](C[C@H]2C(=O)OC)Oc2ccc3ccccc3c21`: the ring closure, yield of all isomers (from C=CCCCCCOC(=O)N[C@H](C(=O)N1C[C@H](Oc2ccc3ccccc3c2Br)C[C@H]1C(=O)OC)C1CCCCC1, cc_pd bond, PdCl2(dppf)-DCM, EtOH, 50.3 mM, 78.0 °C, 48.0 h) came to 52.7%. In turn, `COC(=O)[C@@H]1C[C@@H]2CN1C(=O)[C@H](C(C)(C)C)NC(=O)OCCCCC/C=C/c1cccnc1O2` gave a ring closure, yield of all isomers (from C=CCCCCCOC(=O)N[C@H](C(=O)N1C[C@H](Oc2ncccc2C=C)C[C@H]1C(=O)OC)C(C)(C)C, rcm bond, Zhan 1b catalyst, DCM, 5.03 mM, 16.0 h) of 92.9%. Turning to `COC(=O)[C@@H]1C[C@@H]2CN1C(=O)[C@H](C(C)(C)C)NC(=O)O[C@@H]1CCC[C@H]1CCCC=Cc1nc3ccc(OC)cc3cc1O2`, where the note is “from C=CCCC[C@@H]1CCC[C@H]1OC(=O)N[C@H](C(=O)N1C[C@H](Oc2cc3cc(OC)ccc3nc2C=C)C[C@H]1C(=O)OC)C(C)(C)C, rcm bond, Zhan catalyst, DCE, 16.0 mM, 90.0 °C, 2.0 h”, the ring closure, yield of all isomers amounted to 84%. For the molecule `COC(=O)[C@@H]1C[C@@H]2CN1C(=O)[C@H](C(C)(C)C)NC(=O)OCCCCCC=Cc1ccccc1C#CCO2.[C-]#[O+].[C-]#[O+].[C-]#[O+].[C-]#[O+].[C-]#[O+].[C-]#[O+].[Co].[Co]`, under “from C=CCCCCCOC(=O)N[C@H](C(=O)N1C[C@H](OCC#Cc2ccccc2C=C)C[C@H]1C(=O)OC)C(C)(C)C.[C-]#[O+].[C-]#[O+].[C-]#[O+].[C-]#[O+].[C-]#[O+].[C-]#[O+].[Co].[Co], rcm bond”, the ring closure, yield of all isomers was determined as 34.5%. As for `COC(=O)[C@@H]1C[C@@H]2CN1C(=O)[C@H](C1CCCC1)NC(=O)O[C@@H]1CCC[C@H]1CCCC=Cc1nc3ccccc3cc1O2` (mixture of isomers), the ring closure, yield of all isomers (from C=CCCC[C@@H]1CCC[C@H]1OC(=O)N[C@H](C(=O)N1C[C@H](Oc2cc3ccccc3nc2C=C)C[C@H]1C(=O)OC)C1CCCC1, rcm bond, Zhan catalyst, DCE, 10.0 mM, 90.0 °C, 1.5 h) is 74%. `COC(=O)[C@@H]1C[C@@H]2CN1C(=O)[C@H](C(C)(C)C)NC(=O)OCCCCC=CCC1CCCCC1OC(=O)N2` (stereo partly shown): the ring closure, yield of all isomers (from C=CCCCCOC(=O)N[C@H](C(=O)N1C[C@H](NC(=O)OC2CCCCC2CC=C)C[C@H]1C(=O)OC)C(C)(C)C, rcm bond, Zhan 1a catalyst, DCE, 5.0 mM, 83.0 °C, 1.5 h) is 49.8%.
